Some test systems named below: HT-29; A498; M14; SN12C; HOP-62; KM12; K562; HOP-92; SK-MEL-5; HCC 2998; SF-268; HCT-15; OVCAR-3; UACC-257; NCI-H460; CAKI-1; HCT-116; COLO 205; U-251.
What all share (test): NCI anticancer screen, dose series, 48 h

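Cultured in 96-well plates, cells were exposed to test compound for 48 hours across five concentrations. At the GI50, growth is halved.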 Active and inactive are the calls of the source. Cut-off read from the data, not from the text of the source: active = GI50 up to about 1.1 µM and inactive = higher.

`C/C(CCn1[nH]c(=O)ccc1=O)=N\N=C(N)N`: the GI50 with HT-29, in the experiment with A498, with M14, with SN12C, in the experiment on HOP-62 and with KM12 was > 100 µM (inactive) in each case. For the same molecule, the GI50 was > 100 µM (inactive) in the experiment on K562; > 100 µM (inactive) with HOP-92; > 100 µM (inactive) in the experiment with SK-MEL-5; > 100 µM (inactive) with HCC 2998; > 100 µM (inactive) with SF-268; more than 100 µM in the experiment on HCT-15. For the same molecule, the GI50 in the experiment on OVCAR-3, in the experiment on UACC-257, in the experiment on NCI-H460, in the experiment on CAKI-1 and in the experiment with HCT-116 was > 100 µM (inactive) in each case.
For the molecule `OCC(O)CNc1ccnc2cc(Cl)ccc12` (centres undefined), the GI50 with HT-29, with A498, in the experiment with M14, with SN12C, with HOP-62 and with KM12 was > 100 µM (inactive) throughout. Besides, the GI50 in the experiment on K562 was > 100 µM (inactive); in the experiment with HOP-92, > 100 µM (inactive); with SK-MEL-5, > 100 µM (inactive); in the experiment on HCC 2998, > 100 µM (inactive); in the experiment with SF-268, > 100 µM (inactive); in the experiment with HCT-15, more than 100 µM. The GI50 in the experiment on OVCAR-3, in the experiment on UACC-257, in the experiment with COLO 205, in the experiment on NCI-H460, in the experiment with CAKI-1 and in the experiment with U-251 was > 100 µM (inactive) throughout. The GI50 in the experiment with HCT-116 was > 100 µM (inactive).
With `CC(C)CCCC(C)C1CCC2C3CC([N+](=O)[O-])=C4CC(O)CCC4(C)C3CCC12C` (centres undefined), the GI50 in the experiment with HT-29 is 17.9 µM (inactive); with A498, 21.8 µM (inactive); in the experiment on M14, 13.4 µM (inactive); in the experiment on SN12C, 18.2 µM (inactive); in the experiment on HOP-62 it was 19.9 µM (inactive); with KM12, 16.4 µM (inactive). For the same molecule, the GI50 in the experiment with K562 is 9.62 µM (inactive); in the experiment on HOP-92 it was 23.3 µM (inactive); in the experiment with SK-MEL-5, > 10 µM (inactive); in the experiment with HCC 2998 it was 20.2 µM (inactive); with SF-268, 24.3 µM (inactive); in the experiment on HCT-15, 17.3 µM. In addition, the GI50 in the experiment on OVCAR-3 was 23.9 µM (inactive); with UACC-257, 10.8 µM (inactive); in the experiment on COLO 205, 24.3 µM (inactive); in the experiment with CAKI-1 it was 24.1 µM (inactive); with U-251, 15.5 µM (inactive); in the experiment on HCT-116 it was 14.8 µM (inactive).
On to `COc1ccc(/C=C/C(=O)c2sc(-n3nc(-c4ccccc4)cc3-c3ccccc3)nc2C)cc1`, for which the GI50 is 30.5 µM (inactive) with HT-29; > 10 µM (inactive) in the experiment with A498; > 10 µM (inactive) in the experiment with M14; 75.9 µM (inactive) with SN12C; > 10 µM (inactive) in the experiment on HOP-62; 76.4 µM (inactive) with KM12. Besides, the GI50 in the experiment on K562 was 52.2 µM (inactive); with HOP-92 it was > 10 µM (inactive); with SK-MEL-5, 52.1 µM (inactive); in the experiment on HCC 2998, > 10 µM (inactive); with SF-268, > 10 µM (inactive); in the experiment with HCT-15, 75.2 µM. Moreover, the GI50 was 62.5 µM (inactive) with OVCAR-3; 79.1 µM (inactive) in the experiment on UACC-257; > 10 µM (inactive) with COLO 205; > 10 µM (inactive) in the experiment on NCI-H460; 55.2 µM (inactive) in the experiment on CAKI-1; 62.2 µM (inactive) in the experiment with U-251. Also, in the experiment on HCT-116, the GI50 was > 10 µM (inactive).
As for `O=C(NCc1cccnc1)C1COc2cc(-c3cc(=O)c4ccccc4o3)ccc2O1` (centres undefined), the GI50 with HT-29 is > 87.3 µM (inactive); with A498, > 61.4 µM (inactive); with M14, 5.27 µM (inactive); in the experiment on SN12C, 4.34 µM (inactive); in the experiment with HOP-62, 10.1 µM (inactive); in the experiment with KM12, > 36.1 µM (inactive). In addition, the GI50 was > 80.2 µM (inactive) in the experiment on K562; > 75.3 µM (inactive) in the experiment on HOP-92; 26.1 µM (inactive) with SK-MEL-5; > 100 µM (inactive) in the experiment on HCC 2998; 3.89 µM (inactive) with SF-268; 77.3 µM in the experiment with HCT-15. The GI50 in the experiment on OVCAR-3 is > 100 µM (inactive); in the experiment on UACC-257 it was 4.94 µM (inactive); in the experiment on COLO 205, > 100 µM (inactive); in the experiment on NCI-H460, 51.4 µM (inactive); with CAKI-1, > 63.7 µM (inactive); in the experiment with U-251 it was 5.93 µM (inactive). For the same molecule, the GI50 with HCT-116 is 21.7 µM (inactive).
With `O=c1oc2ccccc2c(O)c1C(C/C(CCN1CCCC1)=N\Nc1ccccc1)c1ccccc1` (centres undefined), the GI50 in the experiment on HT-29 was 62.8 µM (inactive); with A498 it was > 100 µM (inactive); in the experiment on M14 it was 93.1 µM (inactive); with SN12C it was 74.6 µM (inactive); with HOP-62, 94.2 µM (inactive); in the experiment with KM12, 60.5 µM (inactive). The GI50 was 46.2 µM (inactive) with K562; 16.3 µM (inactive) with HOP-92; 46.3 µM (inactive) in the experiment with SK-MEL-5; 23.6 µM (inactive) in the experiment with HCC 2998; > 100 µM (inactive) with SF-268; 52.2 µM in the experiment on HCT-15. In addition, the GI50 with OVCAR-3 is 53.5 µM (inactive); in the experiment with UACC-257, 77.8 µM (inactive); in the experiment on NCI-H460, 70.8 µM (inactive); in the experiment with CAKI-1, > 100 µM (inactive); with U-251, 78.2 µM (inactive); in the experiment with HCT-116, 82.6 µM (inactive).
Consider `Cc1cc(Cl)ccc1NC(=O)CC/C(CC(=O)C(C)C)=N\NC(=O)C[n+]1ccccc1`, for which the GI50 with HT-29, in the experiment on A498, with M14, in the experiment with SN12C, in the experiment on HOP-62 and in the experiment with KM12 was > 100 µM (inactive) throughout. For the same molecule, the GI50 in the experiment on K562 was > 100 µM (inactive); in the experiment with HOP-92 it was > 100 µM (inactive); in the experiment on SK-MEL-5, > 100 µM (inactive); in the experiment with HCC 2998, > 100 µM (inactive); with SF-268, > 100 µM (inactive); with HCT-15, more than 100 µM. For the same molecule, the GI50 in the experiment with OVCAR-3, in the experiment with UACC-257, in the experiment on COLO 205, with NCI-H460, with CAKI-1 and in the experiment with U-251 was > 100 µM (inactive) each time. Moreover, the GI50 in the experiment with HCT-116 was > 100 µM (inactive).
Consider `CCN1CCC(O)(c2ccc(C)cc2)C(C(=O)c2ccc(C)cc2)C1` (centres undefined), for which the GI50 in the experiment on HT-29 is 19.8 µM (inactive); in the experiment on A498, > 59.2 µM (inactive); with M14 it was 36.7 µM (inactive); with SN12C, 14.9 µM (inactive); in the experiment on HOP-62, > 100 µM (inactive); in the experiment on KM12, 33.1 µM (inactive). Besides, the GI50 was 32.1 µM (inactive) with K562; 19.7 µM (inactive) with HOP-92; > 42.3 µM (inactive) with SK-MEL-5; 52.4 µM (inactive) in the experiment with HCC 2998; > 53 µM (inactive) in the experiment on SF-268; 19.6 µM in the experiment on HCT-15. Besides, the GI50 with OVCAR-3 is 21.9 µM (inactive); in the experiment with UACC-257, 19.1 µM (inactive); with COLO 205, 23.6 µM (inactive); in the experiment on NCI-H460, > 52.6 µM (inactive); in the experiment on CAKI-1, 17.2 µM (inactive); with U-251, > 52.5 µM (inactive). The GI50 with HCT-116 is 16.7 µM (inactive).
For `O=[N+]([O-])c1ccc(C2=NN(c3ccccc3)C[N+](c3ccc(Br)cc3)=N2)cc1`, the GI50 in the experiment with HT-29, in the experiment with A498, in the experiment on M14, with SN12C, in the experiment with HOP-62 and with KM12 was > 100 µM (inactive) in each case. Further, the GI50 with K562 is 70.3 µM (inactive); in the experiment on HOP-92 it was 78.7 µM (inactive); in the experiment on SK-MEL-5, > 100 µM (inactive); in the experiment with HCC 2998, 41.6 µM (inactive); in the experiment on SF-268 it was 60.5 µM (inactive); in the experiment on HCT-15, more than 100 µM. The GI50 in the experiment on UACC-257 is > 100 µM (inactive); in the experiment on COLO 205, > 100 µM (inactive); in the experiment with NCI-H460 it was > 100 µM (inactive); in the experiment with CAKI-1, > 100 µM (inactive); in the experiment with U-251, 71.3 µM (inactive); in the experiment on HCT-116 it was 89.5 µM (inactive).
Consider `CCOC(=O)C(/N=N\c1ccc(S(N)(=O)=O)cc1)C(C)=O` (centres undefined), for which the GI50 in the experiment with HT-29, with A498, with M14, with SN12C, with HOP-62 and in the experiment on KM12 was > 100 µM (inactive) throughout. Besides, the GI50 in the experiment with K562 was > 100 µM (inactive); in the experiment with HOP-92, > 100 µM (inactive); with SK-MEL-5, > 100 µM (inactive); in the experiment with HCC 2998, 99.5 µM (inactive); in the experiment with SF-268 it was > 100 µM (inactive); in the experiment with HCT-15, more than 100 µM. For the same molecule, the GI50 with OVCAR-3, in the experiment on UACC-257, with COLO 205, in the experiment on NCI-H460, in the experiment with CAKI-1 and in the experiment on U-251 was > 100 µM (inactive) throughout. The GI50 in the experiment with HCT-116 is > 100 µM (inactive).
Consider `CN(C)c1ccc2c(c1)C(=O)N(OS(=O)(=O)c1ccc([N+](=O)[O-])cc1)C2=O`, for which the GI50 in the experiment on HT-29 was 21.7 µM (inactive); in the experiment with A498, 59.7 µM (inactive); with M14, 17.4 µM (inactive); in the experiment with SN12C it was 22.5 µM (inactive); with HOP-62 it was 37.1 µM (inactive); with KM12, 25.1 µM (inactive). In addition, the GI50 is 31.6 µM (inactive) in the experiment on K562; > 10 µM (inactive) in the experiment on HOP-92; 41.1 µM (inactive) in the experiment with SK-MEL-5; 24.6 µM (inactive) in the experiment with HCC 2998; 27.2 µM (inactive) with SF-268; 33.2 µM with HCT-15. In addition, the GI50 was > 10 µM (inactive) with OVCAR-3; 25.6 µM (inactive) with UACC-257; 24.3 µM (inactive) in the experiment with COLO 205; 49.3 µM (inactive) in the experiment with NCI-H460; 22.4 µM (inactive) in the experiment with CAKI-1; 18.9 µM (inactive) in the experiment on U-251. Moreover, in the experiment with HCT-116, the GI50 is > 10 µM (inactive).
